Values of other authors, collected in patent US9642799B2, “Crystalline 6-(2-((4-amino-3-(3-hydroxyphenyl)-1H-pyrazolo[3,4-D]pyrimidin-1-yl)methyl)-3-(2-chlorobenzyl)-4-0X0-3,4-dihydroquinazolin-5-yl)-N,N-bis(2-methoxyethyl)hex-5-ynamide” (Respivert Limited, priority 2012, dated 2017).

Columns and labels:
[1] = tested on: ovalbumin-sensitized, ovalbumin-challenged mice
mice = conditions: stimulated by TNFα
[2] = elicited by either LPS or cigarette smoke
murine model = conditions: administered by aerosolisation

Row | SMILES | airways hyper-responsiveness, IgE release, pro-inflammatory cytokine expression, inflammatory cell accumulation into the lung and vascular permeability [1] | neutrophil accumulation in the lungs and neutrophil function (mice) | pulmonary neutrophilia [2] | pulmonary eosinophilia, interleukin-13, mucin accumulation and airways hyperesponsiveness (murine model)
1 | Cc1ccccc1-n1c(Cn2cnc3c(N)ncnc32)nc2cccc(C)c2c1=O [IC-87114] | found to inhibit | lowered | – | –
2 | Nc1nc(N)c2nc(-c3cccc(O)c3)c(-c3cccc(O)c3)nc2n1 [TG100-115] | – | – | able to inhibit | reported to inhibit
